Source: ChEMBL document CHEMBL5230092, “PFKFB3 inhibitors as potential anticancer agents: Mechanisms of action, current developments, and structure-activity relationships” (Eur J Med Chem, 2020)

Key:
[1] = Half life in iv dosed C57BL/6 mouse by LC-MS/MS analysis; assay type: ADME, organism-based; conditions: in vivo
[2] = molecular target: T1, 6-phosphofructo-2-kinase/fructose-2,6-bisphosphatase 3 (Homo sapiens, UniProt Q16875); assay: Inhibition of PFKFB3 (unknown origin)
HT-29 = assay: Antiproliferative activity against human HT-29 cells assessed as cell growth inhibition measured after 72 hrs by MTT assay; assay type: functional
HeLa [3] = assay: Antiproliferative activity against human HeLa cells assessed as cell growth inhibition measured after 72 hrs by MTT assay; assay type: functional
A549 = assay: Antiproliferative activity against human A549 cells assessed as cell growth inhibition measured after 72 hrs by MTT assay; assay type: functional
MDA-MB-231 = assay: Antiproliferative activity against human MDA-MB-231 cells assessed as cell growth inhibition measured after 72 hrs by MTT assay; assay type: functional
[4] = molecular target: T1, 6-phosphofructo-2-kinase/fructose-2,6-bisphosphatase 3; assay: Inhibition of PFKFB3 (unknown origin) at 100 uM relative to control
[5] = molecular target: T1, 6-phosphofructo-2-kinase/fructose-2,6-bisphosphatase 3; assay: Inhibition of PFKFB3 (unknown origin) by ADP-Glo luminescent assay
[6] = molecular target: T1, 6-phosphofructo-2-kinase/fructose-2,6-bisphosphatase 3; assay: Binding affinity to PFKFB3 (unknown origin) by MST assay
[7] = molecular target: T1, 6-phosphofructo-2-kinase/fructose-2,6-bisphosphatase 3; assay: Inhibition of full-length human PFKFB3 (1 to 520 residues) incubated for 2 hrs in presence of ATP by ADP-Glo assay
[8] = molecular target: 6-phosphofructo-2-kinase/fructose-2,6-bisphosphatase 1 (Homo sapiens) (UniProt P16118); assay: Inhibition of PFKFB1 (unknown origin) at 5.94 uM relative to control
Sequence of 6-phosphofructo-2-kinase/fructose-2,6-bisphosphatase 1 (Homo sapiens) (P16118 2-471 limits assumed): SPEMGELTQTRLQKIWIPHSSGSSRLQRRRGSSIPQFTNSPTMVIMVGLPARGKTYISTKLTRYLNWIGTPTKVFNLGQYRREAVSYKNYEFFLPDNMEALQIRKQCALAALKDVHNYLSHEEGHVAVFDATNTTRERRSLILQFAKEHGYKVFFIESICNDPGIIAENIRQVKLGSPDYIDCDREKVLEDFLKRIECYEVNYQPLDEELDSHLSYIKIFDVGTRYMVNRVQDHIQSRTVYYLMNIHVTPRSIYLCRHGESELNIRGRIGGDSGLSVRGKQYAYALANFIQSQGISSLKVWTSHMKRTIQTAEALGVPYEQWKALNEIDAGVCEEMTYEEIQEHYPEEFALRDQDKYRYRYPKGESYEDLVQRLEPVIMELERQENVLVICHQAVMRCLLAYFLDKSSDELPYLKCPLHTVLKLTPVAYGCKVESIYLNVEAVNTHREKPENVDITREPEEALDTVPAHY

[9] = molecular target: 6-phosphofructo-2-kinase/fructose-2,6-bisphosphatase 2 (Homo sapiens) (UniProt O60825); assay: Inhibition of PFKFB2 (unknown origin) at 5.94 uM relative to control
Sequence of 6-phosphofructo-2-kinase/fructose-2,6-bisphosphatase 2 (Homo sapiens) (O60825 2-505 limits assumed): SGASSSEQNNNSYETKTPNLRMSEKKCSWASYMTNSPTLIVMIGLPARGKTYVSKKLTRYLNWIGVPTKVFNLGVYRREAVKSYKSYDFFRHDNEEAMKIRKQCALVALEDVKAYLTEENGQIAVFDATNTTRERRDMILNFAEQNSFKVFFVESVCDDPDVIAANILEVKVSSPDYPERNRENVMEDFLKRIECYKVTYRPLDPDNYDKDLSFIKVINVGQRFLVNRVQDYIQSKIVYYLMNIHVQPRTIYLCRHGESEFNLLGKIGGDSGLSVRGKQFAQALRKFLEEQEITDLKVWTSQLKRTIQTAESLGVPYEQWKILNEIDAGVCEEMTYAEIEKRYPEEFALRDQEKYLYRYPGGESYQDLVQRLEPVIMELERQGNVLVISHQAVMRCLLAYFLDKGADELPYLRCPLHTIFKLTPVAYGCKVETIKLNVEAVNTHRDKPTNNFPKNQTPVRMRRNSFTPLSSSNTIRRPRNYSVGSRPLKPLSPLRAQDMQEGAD

[10] = molecular target: 6-phosphofructo-2-kinase/fructose-2,6-bisphosphatase 4 (Homo sapiens) (UniProt Q16877); assay: Inhibition of PFKFB4 (unknown origin) at 5.94 uM relative to control
Sequence of 6-phosphofructo-2-kinase/fructose-2,6-bisphosphatase 4 (Homo sapiens) (Q16877 whole entry, looked up): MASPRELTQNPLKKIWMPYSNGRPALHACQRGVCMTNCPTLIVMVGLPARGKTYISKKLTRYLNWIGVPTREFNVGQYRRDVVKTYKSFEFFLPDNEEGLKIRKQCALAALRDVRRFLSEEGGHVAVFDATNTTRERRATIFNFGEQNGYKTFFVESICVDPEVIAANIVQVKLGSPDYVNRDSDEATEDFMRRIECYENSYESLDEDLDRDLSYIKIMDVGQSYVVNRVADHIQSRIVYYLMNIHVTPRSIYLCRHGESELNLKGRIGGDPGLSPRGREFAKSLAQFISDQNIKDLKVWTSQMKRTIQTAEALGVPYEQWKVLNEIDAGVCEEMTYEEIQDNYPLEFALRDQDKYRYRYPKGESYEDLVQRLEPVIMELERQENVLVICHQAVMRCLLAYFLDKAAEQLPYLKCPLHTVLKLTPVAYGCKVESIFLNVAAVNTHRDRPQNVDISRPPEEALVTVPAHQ

HeLa [11] = assay: Antiproliferative activity against human HeLa cells assessed as cell growth inhibition; assay type: functional
[12] = Half life in BALBc mouse at 10 mg/kg, iv by LC-MS/MS analysis; assay type: ADME, organism-based; conditions: BALB/c, in vivo
[13] = molecular target: T1, 6-phosphofructo-2-kinase/fructose-2,6-bisphosphatase 3; assay: Inhibition of PFKFB3 (unknown origin) at 250 nM relative to control
[14] = Oral bioavailability in BALBc mouse by LC-MS/MS analysis; assay type: ADME, organism-based; conditions: BALB/c, in vivo
[15] = AUC in BALBc mouse at 10 mg/kg, iv by LC-MS/MS analysis; assay type: ADME, organism-based; parameters: dose 10 mg/kg, route iv; conditions: BALB/c, in vivo
[16] = molecular target: T1, 6-phosphofructo-2-kinase/fructose-2,6-bisphosphatase 3; assay type: cell-based, PANC-1
[17] = molecular target: T1, 6-phosphofructo-2-kinase/fructose-2,6-bisphosphatase 3; assay type: cell-based, MIA PaCa-2
[18] = molecular target: T1, 6-phosphofructo-2-kinase/fructose-2,6-bisphosphatase 3; assay type: cell-based, NUGC-3
[19] = Cytotoxicity against human Epithelial cell assessed as cell growth inhibition; assay type: toxicity, cell-based; conditions: epithelial cells
[20] = molecular target: T1, 6-phosphofructo-2-kinase/fructose-2,6-bisphosphatase 3; assay: Inhibition of PFKFB3 (unknown origin) by UV-vis spectrophotometry
[21] = Oral bioavailability in Sprague-Dawley rat by LC-MS/MS analysis; assay type: ADME, organism-based; conditions: in vivo
[22] = AUC in Sprague-Dawley rat at 10 mg/kg, iv by LC-MS/MS analysis; assay type: ADME, organism-based; parameters: dose 10 mg/kg, route iv; conditions: in vivo
[23] = Volume of distribution in Sprague-Dawley rat at 10 mg/kg, iv by LC-MS/MS analysis; assay type: ADME, organism-based; conditions: in vivo
[24] = Half life in Sprague-Dawley rat at 10 mg/kg, iv by LC-MS/MS analysis; assay type: ADME, organism-based; conditions: in vivo
[25] = Cmax in Sprague-Dawley rat at 10 mg/kg, iv by LC-MS/MS analysis; assay type: ADME, organism-based; parameters: dose 10 mg/kg, route iv; conditions: in vivo
[26] = Half life in BALB/c mouse at 5 mg/kg, iv by LC-MS/MS analysis; assay type: ADME, organism-based; conditions: in vivo
[27] = AUC in BALB/c mouse at 5 mg/kg, iv by LC-MS/MS analysis; assay type: ADME, organism-based; parameters: dose 5 mg/kg, route iv; conditions: in vivo
[28] = Metabolic stability in human liver microsomes; assay type: ADME, Microsome
[29] = Clearance in BALB/c mouse at 5 mg/kg, iv by LC-MS/MS analysis; assay type: ADME, organism-based; conditions: in vivo
[30] = Toxicity in Sprague-Dawley rat assessed as maximum tolerated dose; conditions: in vivo
[31] = Oral bioavailability in Beagle dog by LC-MS/MS analysis; assay type: ADME, organism-based, Canis lupus familiaris; conditions: in vivo
[32] = AUC in Beagle dog at 6 mg/kg, iv by LC-MS/MS analysis; assay type: ADME, organism-based, Canis lupus familiaris; parameters: dose 6 mg/kg, route iv; conditions: in vivo
[33] = Half life in Beagle dog at 6 mg/kg, iv by LC-MS/MS analysis; assay type: ADME, organism-based, Canis lupus familiaris; conditions: in vivo
[34] = molecular target: T1, 6-phosphofructo-2-kinase/fructose-2,6-bisphosphatase 3; assay: Inhibition of PFKFB3 (unknown origin) incubated for 90 mins by ADP-Glo luminescent assay
[35] = Metabolic stability in mouse liver microsomes assessed as clearance; assay type: ADME, Microsome; conditions: read-out: CLH
[36] = Metabolic stability in human liver microsomes assessed as clearance; assay type: ADME, Microsome; conditions: read-out: CLH

T1 sequence (Q16875 whole entry): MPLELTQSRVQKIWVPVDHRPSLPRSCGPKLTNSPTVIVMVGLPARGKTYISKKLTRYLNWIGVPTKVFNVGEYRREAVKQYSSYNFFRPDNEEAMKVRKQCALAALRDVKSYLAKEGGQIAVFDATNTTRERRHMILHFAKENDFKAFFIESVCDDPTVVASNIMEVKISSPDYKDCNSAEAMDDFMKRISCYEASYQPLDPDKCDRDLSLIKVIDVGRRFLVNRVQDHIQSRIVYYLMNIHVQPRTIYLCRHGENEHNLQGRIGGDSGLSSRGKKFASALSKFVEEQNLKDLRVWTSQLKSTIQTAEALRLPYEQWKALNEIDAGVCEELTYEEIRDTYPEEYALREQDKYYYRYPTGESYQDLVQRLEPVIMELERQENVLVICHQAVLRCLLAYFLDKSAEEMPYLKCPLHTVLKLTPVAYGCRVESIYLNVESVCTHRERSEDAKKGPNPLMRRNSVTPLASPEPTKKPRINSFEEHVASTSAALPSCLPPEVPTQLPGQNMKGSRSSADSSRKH

O=C(/C=C/c1ccc2ccccc2n1)c1ccncc1
half-life [1]: 5.1 h

O=C(CBr)NCCOP(=O)(O)O
IC50 [2]: 2000 µM

Cc1ccc(/C=N/NC(=O)c2nnn(-c3nonc3N)c2-c2ccc([N+](=O)[O-])cc2)cc1
GI50 (HT-29): 18 µM | GI50 (HeLa [3]): 15.1 µM | GI50 (A549): 18 µM | GI50 (MDA-MB-231): 18 µM | inhibition [4]: 17%

O=C(O)c1ccc(NS(=O)(=O)c2cccc(-c3ccc4ncccc4c3)c2)cc1O
IC50 [5]: 0.28 µM

N[C@H](Cc1c[nH]c2ccccc12)C(=O)NCC(=O)N[C@H](Cc1ccc(O)cc1)C(=O)O
K [6]: 3 µM

O=C1NC=NC2C1C(c1ccccc1)=CN2c1ccc(Br)cc1 (stereo not given)
IC50 [7]: 0.398 µM

O=c1cc(-c2ccc(O)cc2)oc2c(O)c(O)c(O)c(O)c12
inhibition [8]: < 50% | inhibition [9]: < 50% | inhibition [10]: < 50%

CC(C)OC(=O)c1cccc(-c2cc(S(=O)(=O)Nc3ccc(C(=O)O)c(O)c3)sc2Cl)c1
IC50 [5]: 0.15 µM

CCOC(=O)c1cc2ccc(O)cc2oc1=O
GI50 (HeLa [11]): 2.7 µM

O=C(O)c1ccc(NS(=O)(=O)c2cc(-c3ccc4c(c3)OCO4)c(Cl)s2)cc1O
IC50 [5]: 0.2 µM

O=C(c1ccccc1)c1cc2c(ccc3ccccc32)[nH]1
half-life [12]: 2.1 h | inhibition [13]: 13.5% | bioavailability [14]: 25% | AUC [15]: 2630 ng·h/mL

O=C(O)c1ccc(NS(=O)(=O)c2cc(Cl)sc2Cl)cc1O
IC50 [5]: 0.29 µM

Cc1c(S(=O)(=O)Nc2cccc(C(=O)O)c2)sc2ccc(C(C)C)cc12
IC50 [16]: 2.3 µM

O=C(OCCO)c1ccc(NS(=O)(=O)c2cccc(-c3cc(F)ccc3O)c2)cc1O
IC50 [17]: 0.09 µM | IC50 [18]: 0.09 µM | IC50 [16]: 0.09 µM

O=C1NC=NC2C1C(c1ccc(Cl)cc1)=CN2c1ccccc1 (stereo not given)
IC50 [7]: 0.631 µM

O=C(/C=C/c1cccnc1)c1ccncc1
IC50 [19]: 1.4 µM

CC(C)C[C@H](NC(=O)[C@H](Cc1ccccc1)NC(=O)CNC(=O)[C@H](CO)NC(=O)[C@@H](N)Cc1ccc(O)cc1)C(=O)N[C@H](C(=O)O)[C@@H](C)O
K [6]: 44 µM

COc1cccc([C@H](C)Nc2cc(-c3ccc4ncsc4c3)nc(C)n2)c1
IC50 [20]: < 0.5 µM

Cl.O=C(c1ccncc1)c1cc2c(ccc3ccccc32)[nH]1
inhibition [13]: 26.2% | bioavailability [21]: 38% | AUC [22]: 1290 ng·h/mL | Vd [23]: 2.5 L/kg | half-life [24]: 5.5 h | Cmax [25]: 16900 ng/mL

O=C(/C=C/c1ccc2ccc(C(F)(F)F)cc2n1)c1ccncc1 [PFK-158]
half-life [26]: 10.5 h | AUC [27]: 3240 ng·h/mL | Stability [28]: 37% | clearance [29]: 26 mL/min/kg | MTD [30]: > 40 mg/kg

Nc1ccc(C(=O)c2cc3c(ccc4ccccc43)[nH]2)cc1
inhibition [13]: 81.5% | bioavailability [31]: 95% | AUC [32]: 5070 ng·h/mL | half-life [33]: 5.8 h

O=C1NC=NC2C1C=C(c1ccc(Br)cc1)N2c1ccccc1 (stereo not given)
IC50 [7]: 0.398 µM

COc1ccc(C2=CN(c3cccc(OC)c3)C3N=CNC(=O)C23)cc1 (stereo not given)
IC50 [7]: 0.251 µM

CC(C)C[C@H](NC(=O)[C@H](CC(C)C)NC(=O)[C@H](Cc1ccccc1)NC(=O)[C@@H](N)CO)C(=O)N[C@@H](CCCN=C(N)N)C(N)=O
K [6]: 18 µM

COc1ccc(C(Nc2cc(-c3ccc4ccn(C)c4c3)c3nccnc3c2)c2cnnn2C)cn1 (stereo not given)
IC50 [34]: 0.0035 µM

Cn1cc([C@H](Nc2cc(-c3ccc4ccn(C)c4c3)c3nccnc3c2)c2cnnn2C)cn1
microsomal CLint [35]: 29 µL/min/mg | microsomal CLint [36]: 50 µL/min/mg
